Values quoted from earlier work in US11304898B2, “Method of treating carcinoma” (SUN PHARMA ADVANCED RESEARCH COMPANY LTD, priority 2015, dated 2022).

Tests used:
[1] = test system: bile tract cancer; conditions: Phase II studies, bile tract cancer patients
[2] = test system: bile tract cancer; conditions: EORTC study

SMILES	achieved response rate [1]	objective response rate [2]
O=c1[nH]cc(F)c(=O)[nH]1 [Example 5-FU, 5-Fluorouracil]	less than 20%	–
CO[C@@]12[C@H](COC(N)=O)C3=C(C(=O)C(C)=C(N)C3=O)N1C[C@@H]1N[C@@H]12 [Mit-C, mitomycin-C]	–	10%
